Measured values reported in paper PMC5895059, “Scaffold hopping from (5-hydroxymethyl) isophthalates to multisubstituted pyrimidines diminishes binding affinity to the C1 domain of protein kinase C” (PLoS ONE, 2018).
Where “and” joins values, the source holds several entries; their conditions need not be identical. Equal entries are not always repeated.

Biological target: PKCα (Homo sapiens, UniProt P17252)
Experiment: [3H]PDBu displacement, 96-well plate filtration binding assay
Details: for Displacement assay raw data (CCPM): single replicate wells; for Residual [^3H]PDBu binding to PKCα (% of control): 20 μM compound concentration, mean + SEM, n = 2–8

| SMILES | Residual [^3H]PDBu binding to PKCα (% of control) | Displacement of [^3H]PDBu from PKCα (in words) (concentration range of 0.2–30 μM) | Displacement assay raw data (CCPM) (0,2 µM test substance) | Displacement assay raw data (CCPM) (1 µM test substance) | Displacement assay raw data (CCPM) (4 µM test substance) | Displacement assay raw data (CCPM) (10 µM test substance) | Displacement assay raw data (CCPM) (20 µM test substance) | Displacement assay raw data (CCPM) (30 µM test substance) | Displacement assay raw data (CCPM) (1 nM test substance, listed as PMA) | Displacement assay raw data (CCPM) (10 nM test substance, listed as PMA) | Displacement assay raw data (CCPM) (100 nM test substance, listed as PMA) |
| --- | --- | --- | --- | --- | --- | --- | --- | --- | --- | --- | --- |
| O=C(OCc1cccc(C(F)(F)F)c1)c1cc(CO)cc(C(=O)OCc2cccc(C(F)(F)F)c2)c1 [HMI-1a3, reference compound] | 54.8 ± 2.6 % of control | – | – | – | – | – | – | – | – | – | – |
| CCCCC(CC)OC(=O)c1cc(C(=O)OC(CC)CCCC)nc(CO)n1 (stereo not drawn) [Compound 1e, Di(heptan-3-yl) 2-(hydroxymethyl)pyrimidine-4,6-dicarboxylate] | 86.7 ± 7.7 % of control | – | 5837 CCPM and 9796 CCPM and 9740 CCPM and 9577 CCPM and 6148 CCPM and 6500 CCPM | 5874 CCPM and 9629 CCPM and 9242 CCPM and 9347 CCPM and 6081 CCPM and 6166 CCPM | 6376 CCPM and 9023 CCPM and 9333 CCPM and 9667 CCPM and 6505 CCPM and 6158 CCPM | 5476 CCPM and 8845 CCPM and 9519 CCPM and 8799 CCPM and 5785 CCPM and 5946 CCPM | 5873 CCPM and 9742 CCPM and 7884 CCPM and 7727 CCPM and 6291 CCPM and 6049 CCPM | 5476 CCPM and 8529 CCPM and 8458 CCPM and 9304 CCPM and 5635 CCPM and 5882 CCPM | – | – | – |
| CCOC(=O)c1cc(C(=O)OCC)nc(CO)n1 [Compound 1h, Diethyl 2-(hydroxymethyl)pyrimidine-4,6-dicarboxylate] | 116.3 ± 5.9 % of control | – | 6323 CCPM and 10230 CCPM and 10470 CCPM and 11100 CCPM and 5792 CCPM and 6513 CCPM | 5802 CCPM and 9840 CCPM and 9837 CCPM and 10294 CCPM and 5441 CCPM and 6766 CCPM | 5407 CCPM and 9299 CCPM and 9482 CCPM and 9928 CCPM and 5323 CCPM and 5809 CCPM | 6198 CCPM and 9686 CCPM and 9902 CCPM and 9890 CCPM and 6355 CCPM and 6092 CCPM | 6120 CCPM and 9294 CCPM and 10766 CCPM and 9965 CCPM and 5572 CCPM and 5876 CCPM | 5421 CCPM and 9318 CCPM and 10014 CCPM and 8246 CCPM and 4984 CCPM and 6346 CCPM | – | – | – |
| CCCCCCCCCCCCCC(=O)O[C@@H]1[C@@H](C)[C@@]2(O)[C@@H](C=C(CO)C[C@]3(O)C(=O)C(C)=C[C@@H]23)[C@@H]2C(C)(C)[C@]12OC(C)=O [Phorbol 12-myristate-13-acetate, reference compound] | – | – | – | – | – | – | – | – | 1177 CCPM and 1302 CCPM and 1254 CCPM and 242 CCPM and 282 CCPM and 239 CCPM and 330 CCPM and 372 CCPM and 364 CCPM | 406 CCPM and 456 CCPM and 410 CCPM and 123 CCPM and 132 CCPM and 186 CCPM and 230 CCPM and 206 CCPM | 341 CCPM and 382 CCPM and 361 CCPM and 56 CCPM and 49 CCPM and 43 CCPM and 48 CCPM and 57 CCPM and 40 CCPM |
| CCCCCC(CC)OC(=O)c1cc(C(=O)OC(CC)CCCCC)nc(CO)n1 (stereo not drawn) [Compound 1f, Di(octan-3-yl) 2-(hydroxymethyl)pyrimidine-4,6-dicarboxylate] | 88.3 ± 2.7 % of control | – | 8395 CCPM and 7761 CCPM and 8223 CCPM | 8430 CCPM and 8004 CCPM and 8035 CCPM | 8187 CCPM and 8110 CCPM and 8243 CCPM | 6268 CCPM and 7306 CCPM and 7650 CCPM | 7244 CCPM and 7065 CCPM and 7340 CCPM | 7174 CCPM and 7070 CCPM and 7370 CCPM | – | – | – |
| CCCCCCCOC(=O)c1cc(C(=O)OCCCCCCC)nc(CO)n1 [Compound 1a, Diheptyl 2-(hydroxymethyl)pyrimidine-4,6-dicarboxylate] | 94.1 ± 2.4 % of control | – | 5564 CCPM and 8472 CCPM and 8055 CCPM and 9131 CCPM and 5172 CCPM and 4908 CCPM | 5111 CCPM and 8836 CCPM and 8480 CCPM and 8743 CCPM and 5670 CCPM and 5038 CCPM | 5090 CCPM and 8165 CCPM and 8077 CCPM and 7980 CCPM and 5413 CCPM and 5275 CCPM | 5789 CCPM and 8577 CCPM and 7653 CCPM and 8759 CCPM and 5036 CCPM and 5595 CCPM | 4889 CCPM and 7960 CCPM and 7787 CCPM and 7605 CCPM and 5228 CCPM and 4729 CCPM | 4835 CCPM and 7857 CCPM and 7587 CCPM and 5013 CCPM and 5317 CCPM | – | – | – |

Second part, led by results:

| Residual [^3H]PDBu binding to PKCα (% of control) | Displacement of [^3H]PDBu from PKCα (in words) (concentration range of 0.2–30 μM) | SMILES | Displacement assay raw data (CCPM) (0,2 µM test substance) | Displacement assay raw data (CCPM) (1 µM test substance) | Displacement assay raw data (CCPM) (4 µM test substance) | Displacement assay raw data (CCPM) (10 µM test substance) | Displacement assay raw data (CCPM) (20 µM test substance) | Displacement assay raw data (CCPM) (30 µM test substance) | Displacement assay raw data (CCPM) (1 nM test substance, listed as PMA) | Displacement assay raw data (CCPM) (10 nM test substance, listed as PMA) | Displacement assay raw data (CCPM) (100 nM test substance, listed as PMA) |
| --- | --- | --- | --- | --- | --- | --- | --- | --- | --- | --- | --- |
| 90.5 ± 6.0 % of control | – | Cc1c(OCc2cccc(C(F)(F)F)c2)nc(CO)nc1C(=O)OCc1cccc(C(F)(F)F)c1 [Compound 2f, 3-(trifluoromethyl)benzyl 2-(hydroxymethyl)-5-methyl-6-[[3-(trifluoromethyl)benzyl]oxy]pyrimidine-4-carboxylate] | 5892 CCPM and 5535 CCPM and 6214 CCPM and 6493 CCPM and 5681 CCPM and 5606 CCPM | 5789 CCPM and 5065 CCPM and 5775 CCPM and 6129 CCPM and 5689 CCPM | 5908 CCPM and 5351 CCPM and 5505 CCPM and 4754 CCPM and 5387 CCPM and 5468 CCPM | 5951 CCPM and 5634 CCPM and 5541 CCPM and 5247 CCPM and 5397 CCPM and 4899 CCPM | 5509 CCPM and 4316 CCPM and 5047 CCPM and 4822 CCPM and 4931 CCPM and 4834 CCPM | 5249 CCPM and 4747 CCPM and 5046 CCPM and 4792 CCPM and 4631 CCPM and 4673 CCPM | – | – | – |
| 88.5 ± 5.7 % of control | – | CCCCCCCOC(=O)c1nc(CO)nc(OCCCCCCC)c1C [Compound 2b, Heptyl 6-(heptyloxy)-2-(hydroxymethyl)-5-methylpyrimidine-4-carboxylate] | 13052 CCPM and 11682 CCPM and 11827 CCPM and 17977 CCPM and 18315 CCPM and 17029 CCPM | 11258 CCPM and 11582 CCPM and 12305 CCPM and 17512 CCPM and 18998 CCPM and 18500 CCPM | 10048 CCPM and 11019 CCPM and 11674 CCPM and 17585 CCPM and 17180 CCPM and 19863 CCPM | 10753 CCPM and 10221 CCPM and 10149 CCPM and 14691 CCPM and 16431 CCPM and 16220 CCPM | 9620 CCPM and 9492 CCPM and 9656 CCPM and 14771 CCPM and 14660 CCPM and 15872 CCPM | 9760 CCPM and 10346 CCPM and 10712 CCPM and 16581 CCPM and 14486 CCPM and 14880 CCPM | – | – | – |
| 87.2 ± 1.7 % of control | – | CCCCCCCOc1nc(CO)nc(C(=O)OC(CC)CCCC)c1C (stereo not drawn) [Compound 2i, Heptan-3-yl 6-(heptyloxy)-2-(hydroxymethyl)-5-methylpyrimidine-4-carboxylate] | 4873 CCPM and 4870 CCPM and 5222 CCPM and 7916 CCPM and 8966 CCPM and 8933 CCPM | 5191 CCPM and 5217 CCPM and 5062 CCPM and 8605 CCPM and 8987 CCPM and 9227 CCPM | 5070 CCPM and 5217 CCPM and 5699 CCPM and 8553 CCPM and 8476 CCPM and 8686 CCPM | 4806 CCPM and 5282 CCPM and 4681 CCPM and 7955 CCPM and 8861 CCPM and 7525 CCPM | 4663 CCPM and 4781 CCPM and 4927 CCPM and 7593 CCPM and 7766 CCPM and 7574 CCPM | 4959 CCPM and 5003 CCPM and 5038 CCPM and 7682 CCPM and 7603 CCPM and 7191 CCPM | – | – | – |
| 93.5 ± 6.5 % of control | – | CCCCCCCCOC(=O)c1nc(CO)nc(OCCCCCCCC)c1C [Compound 2c, Octyl 2-(hydroxymethyl)-5-methyl-6-(octyloxy)pyrimidine-4-carboxylate] | 12223 CCPM and 10832 CCPM and 10701 CCPM and 18273 CCPM and 16005 CCPM and 17696 CCPM | 12118 CCPM and 12391 CCPM and 11284 CCPM and 18079 CCPM and 16200 CCPM and 17048 CCPM | 10666 CCPM and 10448 CCPM and 9501 CCPM and 18957 CCPM and 15769 CCPM and 16408 CCPM | 10483 CCPM and 10217 CCPM and 10554 CCPM and 15009 CCPM and 15224 CCPM and 15278 CCPM | 10634 CCPM and 9873 CCPM and 9750 CCPM and 16572 CCPM and 15241 CCPM and 16254 CCPM | 11684 CCPM and 11210 CCPM and 10063 CCPM and 15855 CCPM and 15398 CCPM and 15526 CCPM | – | – | – |
| 85.3 ± 7.4 % of control | strongest concentration dependence | CCCCCCOC(=O)c1nc(CO)nc(OCCCCCC)c1C [Compound 2a, Hexyl 6-(hexyloxy)-2-(hydroxymethyl)-5-methylpyrimidine-4-carboxylate] | 7949 CCPM and 9699 CCPM and 8544 CCPM and 12898 CCPM and 11646 CCPM and 12786 CCPM | 7626 CCPM and 8685 CCPM and 9639 CCPM and 11993 CCPM and 12245 CCPM and 12903 CCPM | 7496 CCPM and 8524 CCPM and 9257 CCPM and 11421 CCPM and 11194 CCPM and 11877 CCPM | 7467 CCPM and 7915 CCPM and 7828 CCPM and 11547 CCPM and 11263 CCPM and 11635 CCPM | 6283 CCPM and 8361 CCPM and 8257 CCPM and 10077 CCPM and 11544 CCPM and 10260 CCPM | 6598 CCPM and 7105 CCPM and 7428 CCPM and 10040 CCPM and 10575 CCPM and 9972 CCPM | – | – | – |
| 106.7 ± 5.0 % of control | – | COC(=O)c1nc(CO)nc(OCc2cccc(C(F)(F)F)c2)c1C [Compound 2g, Methyl 2-(hydroxymethyl)-5-methyl-6-[[3-(trifluoromethyl)benzyl]oxy]pyrimidine-4-carboxylate] | 5444 CCPM and 5572 CCPM and 6419 CCPM and 5626 CCPM and 5372 CCPM and 5082 CCPM | 5331 CCPM and 5641 CCPM and 6328 CCPM and 5502 CCPM and 5786 CCPM and 5467 CCPM | 5858 CCPM and 5969 CCPM and 5764 CCPM and 5341 CCPM and 5546 CCPM and 5465 CCPM | 6071 CCPM and 6111 CCPM and 6173 CCPM and 5469 CCPM and 6077 CCPM and 5316 CCPM | 5096 CCPM and 6099 CCPM and 5970 CCPM and 5477 CCPM and 5384 CCPM and 5474 CCPM | 5416 CCPM and 5047 CCPM and 5574 CCPM and 5225 CCPM and 5482 CCPM and 5411 CCPM | – | – | – |
